Measured values: ChEMBL document CHEMBL5352506, “The Zinc-Binding Group Effect: Lessons from Non-Hydroxamic Acid Vorinostat Analogs” (J Med Chem, 2023)

How the values were obtained:
[1] = Metabolic stability in mouse liver microsomes assessed as half life; assay type: ADME, Microsome
[2] = Stability in mouse plasma assessed as half life; assay type: ADME, cell-free
Histone deacetylase 1 = Histone deacetylase 1 (Homo sapiens, UniProt Q13547); assay: Inhibition of human full-length recombinant HDAC1 incubated for 2 hrs by fluorescence based analysis
[3] = molecular target: T1, Protein deacetylase HDAC6 (Homo sapiens, UniProt Q9UBN7); assay: Inhibition of human full-length recombinant HDAC6 incubated for 2 hrs by fluorescence based analysis
T1 sequence (Q9UBN7 whole entry): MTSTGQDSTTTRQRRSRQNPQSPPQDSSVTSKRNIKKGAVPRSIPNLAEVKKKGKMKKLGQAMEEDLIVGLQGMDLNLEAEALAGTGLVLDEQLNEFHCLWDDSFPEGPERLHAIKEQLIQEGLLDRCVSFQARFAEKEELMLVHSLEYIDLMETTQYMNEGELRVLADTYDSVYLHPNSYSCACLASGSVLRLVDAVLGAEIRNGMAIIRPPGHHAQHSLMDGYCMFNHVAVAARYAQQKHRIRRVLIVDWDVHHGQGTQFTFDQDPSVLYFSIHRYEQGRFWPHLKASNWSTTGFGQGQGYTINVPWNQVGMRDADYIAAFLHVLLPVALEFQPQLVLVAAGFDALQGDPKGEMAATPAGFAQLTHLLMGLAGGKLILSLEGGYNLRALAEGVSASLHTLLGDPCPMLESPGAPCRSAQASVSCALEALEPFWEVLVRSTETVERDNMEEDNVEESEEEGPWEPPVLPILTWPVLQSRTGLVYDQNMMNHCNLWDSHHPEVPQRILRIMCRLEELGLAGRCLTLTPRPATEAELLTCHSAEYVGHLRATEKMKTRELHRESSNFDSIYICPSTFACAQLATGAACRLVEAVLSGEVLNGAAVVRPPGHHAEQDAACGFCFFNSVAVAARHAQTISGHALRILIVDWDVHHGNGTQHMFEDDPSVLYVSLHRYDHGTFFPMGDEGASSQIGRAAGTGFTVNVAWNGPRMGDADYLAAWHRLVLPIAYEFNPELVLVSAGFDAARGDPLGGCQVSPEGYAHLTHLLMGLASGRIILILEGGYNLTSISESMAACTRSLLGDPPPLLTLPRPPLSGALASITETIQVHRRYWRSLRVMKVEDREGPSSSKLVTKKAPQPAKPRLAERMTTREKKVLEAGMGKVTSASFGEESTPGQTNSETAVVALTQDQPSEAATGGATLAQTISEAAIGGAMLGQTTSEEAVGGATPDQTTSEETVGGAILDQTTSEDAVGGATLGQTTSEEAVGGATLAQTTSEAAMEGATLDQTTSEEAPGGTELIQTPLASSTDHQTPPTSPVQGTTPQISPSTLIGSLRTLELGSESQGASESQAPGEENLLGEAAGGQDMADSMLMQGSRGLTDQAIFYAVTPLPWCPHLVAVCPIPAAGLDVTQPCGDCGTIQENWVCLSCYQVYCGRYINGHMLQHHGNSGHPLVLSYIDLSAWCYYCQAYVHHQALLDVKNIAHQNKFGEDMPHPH

Histone deacetylase = assay type: cell-based, Homo sapiens; details: hela
Histone deacetylase 8 = molecular target: T2, Histone deacetylase 8 (Homo sapiens, UniProt Q9BY41); assay: Inhibition of human recombinant HDAC8
T2 sequence (Q9BY41 whole entry): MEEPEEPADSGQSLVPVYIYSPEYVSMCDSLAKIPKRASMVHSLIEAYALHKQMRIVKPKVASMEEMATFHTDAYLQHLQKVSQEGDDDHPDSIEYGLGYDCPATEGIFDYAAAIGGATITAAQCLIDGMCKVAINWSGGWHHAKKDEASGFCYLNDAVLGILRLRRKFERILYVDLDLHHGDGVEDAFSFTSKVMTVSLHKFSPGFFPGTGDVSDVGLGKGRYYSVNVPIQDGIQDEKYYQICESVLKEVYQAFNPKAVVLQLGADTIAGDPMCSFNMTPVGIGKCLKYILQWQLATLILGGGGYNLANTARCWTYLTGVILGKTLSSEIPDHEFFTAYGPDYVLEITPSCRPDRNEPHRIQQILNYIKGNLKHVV

A2780 = assay: Antiproliferative activity against human A2780 cells assessed as cell growth inhibition; assay type: functional, cell-based
HEK-293T = assay: Antiproliferative activity against HEK293T cells assessed as inhibition of cell growth by MTT assay; assay type: functional, cell-based; details: Homo sapiens
MCF7 = assay: Antiproliferative activity against human MCF7 cells assessed as inhibition of cell growth by MTT assay; assay type: functional, cell-based
HeLa = assay: Antiproliferative activity against human HeLa cells assessed as inhibition of cell growth by MTT assay; assay type: functional, cell-based
K562 = assay: Antiproliferative activity against human K562 cells assessed as inhibition of cell growth by MTT assay; assay type: functional, cell-based

Histone deacetylase 1, sequence (Q13547 whole entry): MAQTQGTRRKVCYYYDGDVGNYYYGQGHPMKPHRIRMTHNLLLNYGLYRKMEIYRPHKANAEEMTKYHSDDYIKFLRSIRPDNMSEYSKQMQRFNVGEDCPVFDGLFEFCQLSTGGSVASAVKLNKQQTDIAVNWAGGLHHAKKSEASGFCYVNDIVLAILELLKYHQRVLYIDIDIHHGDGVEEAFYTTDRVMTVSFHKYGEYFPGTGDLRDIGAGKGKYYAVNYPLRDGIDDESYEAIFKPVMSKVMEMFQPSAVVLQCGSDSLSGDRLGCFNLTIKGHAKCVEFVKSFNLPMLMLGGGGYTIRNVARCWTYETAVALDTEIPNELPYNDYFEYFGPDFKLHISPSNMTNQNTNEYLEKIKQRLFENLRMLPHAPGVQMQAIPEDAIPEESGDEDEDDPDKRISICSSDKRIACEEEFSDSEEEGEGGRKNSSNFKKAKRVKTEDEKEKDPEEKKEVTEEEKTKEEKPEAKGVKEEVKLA

## Nc1ccccc1NC(=O)CCCCCCC(=O)Nc1ccccc1
[1]
  half-life: 1.9 h
[2]
  half-life: 1.9 h

## Cc1onc(-c2ccccc2)c1C(=O)NCCCCCCC(=O)NO
Histone deacetylase 1
  IC50: 3 µM
[3]
  IC50: 0.18 µM

## CP(=O)([O-])CCCCCCC(=O)Nc1ccccc1.[Li+]
Histone deacetylase
  IC50: 8200 µM
Histone deacetylase 8
  IC50: 390 µM
A2780
  IC50: 110 µM

## O=C(CCCCCSc1nc[nH]n1)Nc1ccccc1
Histone deacetylase
  IC50: 8.1 µM
HEK-293T
  IC50: 11.1 µM
MCF7
  IC50: 11.1 µM
HeLa
  IC50: 11.1 µM
K562
  IC50: 11.1 µM
